As to `*/N=N/c1ccc(Nc2ccc(C(=O)c3ccc(C(=O)c4ccc(Nc5ccc(*)cc5)cc4)cc3)cc2)cc1` (repeat unit), the glass transition temperature worked out at 203.00 °C.

`*C(=O)Nc1ccc(C(=O)c2ccc(NC(=O)c3ccc4c(c3)C(=O)N(c3ccc(NC(=O)Nc5ccc(N6C(=O)c7ccc(*)cc7C6=O)cc5)cc3)C4=O)cc2)cc1` (repeat unit) displayed a glass transition temperature of 212.00 °C.

The molecule `*C(=O)Nc1ccc(C(c2ccc(NC(=O)c3ccc4c(c3)C(=O)N(c3ccc(Oc5cccc6c(Oc7ccc(N8C(=O)c9ccc(*)cc9C8=O)cc7)cccc56)cc3)C4=O)cc2)(C(F)(F)F)C(F)(F)F)cc1` (repeat unit) had a glass transition temperature of 283.00 °C.

The molecule `*C(=O)Nc1ccc(C2(c3ccc(NC(=O)c4ccc5c(c4)C(=O)N(c4ccc(Oc6ccc(N7C(=O)c8ccc(*)cc8C7=O)cc6)cc4)C5=O)cc3)c3ccccc3-c3ccccc32)cc1` (repeat unit) came in with a glass transition temperature of 240.00 °C.

Molecule `*C(=O)Nc1ccc(C2(c3ccc(NC(=O)c4ccc5c(c4)C(=O)N(c4ccc(Sc6ccc(Oc7ccc(Sc8ccc(N9C(=O)c%10ccc(*)cc%10C9=O)cc8)cc7)cc6)cc4)C5=O)cc3)c3ccccc3-c3ccccc32)cc1` (repeat unit) registered a glass transition temperature of 298.00 °C.

`*C(=O)Nc1ccc(C2(c3ccc(NC(=O)c4ccc5c(c4)C(=O)N(c4cccc(N6C(=O)c7ccc(*)cc7C6=O)c4)C5=O)cc3)c3ccccc3-c3ccccc32)cc1` (repeat unit) returned a glass transition temperature of 209.00 °C.

Turning to `*C(=O)Nc1ccc(Cc2ccc(N3C(=O)c4ccc(*)cc4C3=O)cc2)cc1` (repeat unit), the glass transition temperature was determined as 279.50 °C.

For the molecule `*C(=O)Nc1ccc(Cc2ccc(NC(=O)c3ccc(N4C(=O)c5ccc(*)cc5C4=O)cc3)cc2)cc1` (repeat unit), the glass transition temperature is 222.00 °C.

Molecule `*C(=O)Nc1ccc(Cc2ccc(NC(=O)c3ccc4c(c3)C(=O)N(c3ccc(Oc5ccc6ccc(Oc7ccc(N8C(=O)c9ccc(*)cc9C8=O)cc7)cc6c5)cc3)C4=O)cc2)cc1` (repeat unit) registered a glass transition temperature of 273.00 °C.

The molecule `*C(=O)Nc1ccc(Cc2ccc(NC(=O)c3ccc4c(c3)C(=O)N(c3cccc(P(=O)(c5ccccc5)c5cccc(N6C(=O)c7ccc(*)cc7C6=O)c5)c3)C4=O)cc2)cc1` (repeat unit) had a glass transition temperature of 233.00 °C.

In the case of `*C(=O)Nc1ccc(NC(=O)c2ccc3c(c2)C(=O)N(c2cc(-c4nc5ccccc5s4)cc(N4C(=O)c5ccc(*)cc5C4=O)c2)C3=O)cc1` (repeat unit), the glass transition temperature stood at 356.00 °C.

For the molecule `*C(=O)Nc1ccc(NC(=O)c2ccc3c(c2)C(=O)N(c2cccc(N4C(=O)c5ccc(*)cc5C4=O)c2)C3=O)cc1` (repeat unit), the glass transition temperature was found to be 341.00 °C.

Take `*C(=O)Nc1ccc(Oc2ccc(-c3ccc(Oc4ccc(NC(=O)c5ccc6c(c5)C(=O)N(c5cccc(N7C(=O)c8ccc(*)cc8C7=O)c5)C6=O)cc4)cc3)cc2)cc1` (repeat unit): the glass transition temperature stood at 292.00 °C.

On to `*C(=O)c1ccc2c(c1)C(=O)N(c1ccc(Oc3ccc(C(=O)c4ccc(C(=O)c5ccc(C(=O)c6ccc(Oc7ccc(N8C(=O)c9ccc(*)cc9C8=O)cc7)cc6)cc5)cc4)cc3)cc1)C2=O` (repeat unit), for which the glass transition temperature was determined as 233.00 °C.

The molecule `*CC1CCC(COC(=O)Nc2ccc(Cc3ccc(NC(=O)O*)cc3)cc2)CC1` (repeat unit) registered a glass transition temperature of 134.00 °C.

On to `*CCCCCCCCCCCCCCCCOC(=O)Nc1ccc(Cc2ccc(NC(=O)O*)cc2)cc1` (repeat unit), for which the glass transition temperature was determined as 40.00 °C.

Take `*CCCCCCCCCCOC(=O)Nc1ccc(Cc2ccc(NC(=O)O*)cc2)cc1` (repeat unit): the glass transition temperature came out at 60.00 °C.

The molecule `*CCCCCCCCCOC(=O)Nc1ccc(Cc2ccc(NC(=O)O*)cc2)cc1` (repeat unit) displayed a glass transition temperature of 72.00 °C.

`*CCCCCCCCOc1ccc(NC(=O)c2cccc(C(=O)Nc3ccc(O*)cc3)c2)cc1` (repeat unit) displayed a glass transition temperature of 128.00 °C.

In turn, `*CCCCCCOC(=O)Nc1ccc(Cc2ccc(NC(=O)O*)cc2)cc1` (repeat unit) registered a glass transition temperature of 71.00 °C.

In turn, `*CCCCCOC(=O)Nc1ccc(Cc2ccc(NC(=O)O*)cc2)cc1` (repeat unit) had a glass transition temperature of 95.00 °C.

`*CCOC(=O)Nc1ccc(CCCc2ccc(NC(=O)O*)cc2)cc1` (repeat unit) had a glass transition temperature of 74.10 °C.

`*CCOC(=O)Nc1ccc(Cc2ccc(NC(=O)O*)cc2)cc1` (repeat unit) displayed a glass transition temperature of 139.00 °C.

For `*CCc1ccc(NC(=O)c2cccc(C(=O)Nc3ccc(CCOC(=O)c4cccc(C(=O)O*)c4)cc3)c2)cc1` (repeat unit), the glass transition temperature came out at 142.00 °C.

In turn, `*COC(=O)Nc1ccc(Cc2ccc(NC(=O)OCc3cocc3*)cc2)cc1` (repeat unit) showed a glass transition temperature of 45.00 °C.

The molecule `*Nc1ccc(C(c2ccc(NC(=O)c3cccc(C(*)=O)c3)cc2)(C(F)(F)F)C(F)(F)F)cc1` (repeat unit) came in with a glass transition temperature of 272.00 °C.

Consider `*Nc1ccc(C2(c3ccc(NC(=O)c4cccc(C(*)=O)c4)cc3)c3ccccc3-c3ccccc32)cc1` (repeat unit), for which the glass transition temperature was 277.00 °C.

For `*Nc1ccc(Cc2ccc(NC(=O)c3cc(C(*)=O)cc(N4C(=O)C5C6CCC(C6)C5C4=O)c3)cc2)cc1` (repeat unit), the glass transition temperature is 293.00 °C.

The molecule `*Nc1ccc(Cc2ccc(NC(=O)c3cc(C(*)=O)cc(S(=O)(=O)c4ccccc4)c3)cc2)cc1` (repeat unit) showed a glass transition temperature of 270.00 °C.

Take `*Nc1ccc(Cc2ccc(NC(=O)c3ccc(C(*)=O)cc3)cc2)cc1` (repeat unit): the glass transition temperature turned out to be 294.50 °C.

As to `*Nc1ccc(Cc2ccc(NC(=O)c3cccc(C(*)=O)c3)cc2)cc1` (repeat unit), the glass transition temperature was 265.00 °C.

With `*Nc1ccc(NC(=O)c2cc(C(=O)c3ccc(C(=O)O)c(C(*)=O)c3)ccc2C(=O)O)cc1` (repeat unit), the glass transition temperature was determined as 213.20 °C.

With `*Nc1ccc(NC(=O)c2ccc(C(=O)c3ccc(C(*)=O)c(C(=O)O)c3)cc2C(=O)O)cc1` (repeat unit), the glass transition temperature came to 317.00 °C.

On to `*Nc1ccc(NC(=O)c2ccc(P(=O)(c3ccccc3)c3ccc(C(*)=O)cc3)cc2)cc1` (repeat unit), for which the glass transition temperature was determined as 252.00 °C.

`*Nc1ccc(Nc2ccc(C(=O)c3ccc(C(=O)c4ccc(*)cc4)cc3)cc2)cc1` (repeat unit) showed a glass transition temperature of 203.50 °C.

Molecule `*Nc1cccc(CCc2ccc(NC(=O)c3ccc(C(*)=O)cc3)cc2)c1` (repeat unit) yielded a glass transition temperature of 203.00 °C.

Molecule `*Nc1ccccc1CCc1ccc(NC(=O)Nc2ccc(CCc3ccc(NC(*)=O)cc3)cc2)cc1` (repeat unit) showed a glass transition temperature of 217.00 °C.

In the case of `*OP(=O)(Oc1ccc(NC(=O)OCCCCCCOC(=O)Nc2ccc(*)cc2)cc1)c1ccccc1` (repeat unit), the glass transition temperature is -3.00 °C.

Consider `*Oc1ccc(C(=O)Nc2ccc(C(c3ccc(NC(=O)c4ccc(*)cc4)cc3)(P3(=O)Oc4ccccc4-c4ccccc43)P3(=O)Oc4ccccc4-c4ccccc43)cc2)cc1` (repeat unit), for which the glass transition temperature came out at 243.00 °C.

`*Oc1ccc(C(c2ccc(OC(=O)Nc3ccc(Cc4ccc(NC(*)=O)cc4)cc3)cc2)(C(F)(F)F)C(F)(F)F)cc1` (repeat unit) came in with a glass transition temperature of 81.00 °C.

The molecule `*Oc1ccc(C(c2ccc(Oc3ccc(C(=O)Nc4ccc(NC(=O)c5ccc(*)cc5)cc4)cc3)cc2)(C(F)(F)F)C(F)(F)F)cc1` (repeat unit) yielded a glass transition temperature of 218.00 °C.

Molecule `*Oc1ccc(NC(=O)Nc2ccccc2CCc2ccc(NC(=O)Nc3ccc(*)cc3)cc2)cc1` (repeat unit) returned a glass transition temperature of 200.00 °C.

`*Oc1ccc(NC(=O)c2ccc(C(=O)Nc3ccc(OC4COC5C(*)COC45)cc3)cc2)cc1` (repeat unit): the glass transition temperature was determined as 57.00 °C.

`*Oc1ccc(NC(=O)c2ccc(OC3COC4C(Oc5ccc(C(=O)Nc6ccc(OC7COC8C(*)COC78)cc6)cc5)COC34)cc2)cc1` (repeat unit) came in with a glass transition temperature of 165.00 °C.

As for `*Oc1ccc(Nc2ccc(C(=O)c3ccc(C(=O)c4ccc(Nc5ccc(*)cc5)cc4)cc3)cc2)cc1` (repeat unit), the glass transition temperature came out at 215.00 °C.

Take `*c1ccc(C(=O)c2ccc(Oc3ccc(-c4nn(*)c(=O)c5ccccc45)c(F)c3)cc2)cc1` (repeat unit): the glass transition temperature was determined as 253.00 °C.

Regarding `*c1ccc(C(=O)c2ccc(Oc3ccc(-c4nn(*)c(=O)c5ccccc45)cc3Br)cc2)cc1` (repeat unit), the glass transition temperature was found to be 254.00 °C.

In turn, `*c1ccc(Cc2ccc(NC(=O)c3cccc(-c4nc5cc(-c6ccc7[nH]c(-c8cccc(C(=O)Nc9ccc(Cc%10ccc(-n%11c(=O)c%12cc%13c(=O)n(*)c(=O)c%13cc%12c%11=O)cc%10)cc9)c8)nc7c6)ccc5[nH]4)c3)cc2)cc1` (repeat unit) displayed a glass transition temperature of 277.00 °C.

Molecule `*c1ccc(Cc2ccc(NC(=O)c3cccc(Oc4ccc5c(c4)C(=O)N(*)C5=O)c3)cc2)cc1` (repeat unit) displayed a glass transition temperature of 243.00 °C.

`*c1ccc(Oc2ccc(C(=O)c3ccc(C(=O)c4ccc(C(=O)c5ccc(Oc6ccc(-c7nc(-c8ccccc8)[nH]c7*)cc6)cc5)cc4)cc3)cc2)cc1` (repeat unit): the glass transition temperature came out at 239.00 °C.

Take `*c1ccc2c(c1)C(=O)N(c1ccc(C(=O)Nc3ccc(Oc4ccc(-c5ccc(Oc6ccc(NC(=O)c7ccc(N8C(=O)c9ccc(C(*)(C(F)(F)F)C(F)(F)F)cc9C8=O)cc7)cc6)cc5)cc4)cc3)cc1)C2=O` (repeat unit): the glass transition temperature came out at 296.00 °C.

Turning to `*c1ccc2c(c1)C(=O)N(c1cccc(C(=O)Nc3ccc(C(c4ccc(NC(=O)c5cccc(N6C(=O)c7ccc(C(*)(C(F)(F)F)C(F)(F)F)cc7C6=O)c5)cc4)(C(F)(F)F)C(F)(F)F)cc3)c1)C2=O` (repeat unit), the glass transition temperature came to 273.50 °C.

`*c1cccc(C(=O)Nc2ccc(Oc3ccc(-c4ccc(Oc5ccc(NC(=O)c6cccc(N7C(=O)c8ccc(-c9ccc%10c(c9)C(=O)N(*)C%10=O)cc8C7=O)c6)cc5)cc4)cc3)cc2)c1` (repeat unit) returned a glass transition temperature of 270.00 °C.

The record behind these values is the PolyMetriX glass transition set.
